Values after ≈ are worked out from the molar mass of the structure shown.
Assays:
S. pneumoniae = assay: MIC broth microdilution, S. pneumoniae; format: cell-based; conditions: Streptococcus pneumoniae, 18 h; PMBN 0 µg/mL, control compounds; read-out: MIC (µM) S. pneumoniae
Experimental: (§1) MIC determination was performed via standard broth microdilution according to the Clinical & Laboratory Standards institute guidelines. Overnight colonies grown on BD-Columbia agar with 5% Sheep Blood (Becton Dickinson, Franklin Lakes, NJ, USA), were diluted in Mueller Hinton Broth 2 cation adjusted (MH+) medium (Thermo Fisher Scientific) to a concentration of 5 × 10^5 CFU/mL. Serial dilutions (1:2) of test compounds were incubated at 37 °C with 5 × 10^4 bacteria in a final volume of 100 μL. Sterile and growth controls in the presence of 1% DMSO and PMBN if the case, and the positive controls, aztreonam (AZT) and tigecycline (TIG) were included in the experiments (Table S4). The MICs were determined visually after 18 h at 37 °C and confirmed by the addition of 10% PrestoBlue (ThermoFisher Scientific) reagent according to the manufacture’s protocol. The fluorescence signal of PrestoBlue reagent was measured at Ex/Em: 550/595 nm after 30 min incubation at 37 °C using at a ClarioStar microplate reader (BMG Labtech). PrestoBlue reduction occurs in the presence of living cells and consequently turns red in colour and is highly fluorescent.

[1] = system: P. aeruginosa PAO1 (wild-type strain); assay: MIC broth microdilution, P. aeruginosa PAO1; format: cell-based, Pseudomonas aeruginosa; conditions: for MIC: Pseudomonas aeruginosa, PAO1, PMBN 0 µg/mL (absence of PMBN); for MIC (µM) against P. aeruginosa PAO1: wild-type strain, with 4 µg/mL PMBN
Excerpt: (§2) The results presented above implied that seven pyrrolidine-2,3-dione derivatives inhibited the activity of ^PaPBP3 in vitro. Consequently, we were very interested in investigating the potential of these compounds to affect the growth of P. aeruginosa. Two P. aeruginosa bacterial strains (the wild-type PAO1 and the isogenic ΔmexB ΔmexX ΔmexCD-oprJ efflux pump mutant) were used to determine the MIC and the potential role of the main P. aeruginosa efflux systems in compound uptake. To increase the antibacterial sensitivity of the tested P. aeruginosa isolates to the potential inhibitors, we performed MIC experiments in the presence and absence of a sub-MIC concentration (4 µg/mL) of the outer membrane permeabilising polymyxin B nonapeptide (PMBN). […] Thus, we concluded that the physicochemical properties of the pyrrolidine-2,3-dione compounds were perhaps not yet favourable enough to cross the P. aeruginosa cell envelope without a permeabiliser because of their high hydrophobicity.
(§3) The wild-type P.aeruginosa PAO1 and the isogenic P. aeruginosa K2896 ΔmexBΔmexXYΔmexCD-oprJ isolates were used to determine the MIC in the presence and absence of PMBN [48].
as §1

S. aureus 133 = assay: MIC broth microdilution, S. aureus; format: cell-based; conditions: Staphylococcus aureus, 133, 18 h; PMBN 0 µg/mL, control compounds
Experimental: as §1

E. coli Neumann = assay: MIC broth microdilution, E. coli; format: cell-based; conditions: Escherichia coli; PMBN 0 µg/mL, control compounds; read-out: MIC (µM) E. coli Newmann
Experimental: as §1

[2] = system: P. aeruginosa K2896 ΔmexBΔmexXYΔmexCD-oprJ; assay: MIC broth microdilution, P. aeruginosa K2896 efflux mutant; format: cell-based, Pseudomonas aeruginosa; conditions: for MIC: Pseudomonas aeruginosa, read-out: MIC (µM) P. aeruginosa K2896; for MIC (µM) against P. aeruginosa K28926: ΔmexB, ΔmexX, ΔmexCD-oprJ, with 4 µg/mL PMBN
Excerpt: as §2, §3, §1

B. subtilis 168 = assay: MIC broth microdilution, B. subtilis; format: cell-based; conditions: Bacillus subtilis, 168, 18 h; PMBN 0 µg/mL, control compounds
Experimental: as §1

A. baumannii ATCC15308 = assay: MIC broth microdilution, A. baumannii; format: cell-based; conditions: Acinetobacter baumannii, control compounds
Experimental: as §1

[3] = system: K. pneumoniae clinical isolate; assay: MIC broth microdilution, K. pneumoniae; format: cell-based; conditions: control compounds
Experimental: as §1

| SMILES | MIC (S. pneumoniae) | MIC [1] | MIC (µM) against P. aeruginosa PAO1 [1] | MIC (S. aureus 133) | MIC (E. coli Neumann) | MIC [2] | MIC (µM) against P. aeruginosa K28926 [2] | MIC (B. subtilis 168) | MIC (A. baumannii ATCC15308; ATCC15308, PMBN 0 µg/mL) | MIC (A. baumannii ATCC15308; ATCC15308, PMBN 50 µg/mL) | MIC ([3]; PMBN 0 µg/mL) | MIC ([3]; PMBN 50 µg/mL) |
| --- | --- | --- | --- | --- | --- | --- | --- | --- | --- | --- | --- | --- |
| CN(C)c1cc(NC(=O)CNC(C)(C)C)c(O)c2c1C[C@H]1C[C@H]3[C@H](N(C)C)C(O)=C(C(N)=O)C(=O)[C@@]3(O)C(O)=C1C2=O [Tygecyclin, tigecycline, reference compound] | 0.1 µM (≈ 0.0586 µg/mL) | > 4 µM | 0.4 µM (≈ 0.234 µg/mL) | 0.2 µM (≈ 0.117 µg/mL) | 0.4 µM (≈ 0.234 µg/mL) | 0.8 µM (≈ 0.469 µg/mL) | 0.2 µM (≈ 0.117 µg/mL) | 0.2 µM (≈ 0.117 µg/mL) | 0.9 µM (≈ 0.527 µg/mL) | 0.4 µM (≈ 0.234 µg/mL) | 0.9 µM (≈ 0.527 µg/mL) | 0.4 µM (≈ 0.234 µg/mL) |
| C[C@H]1[C@H](NC(=O)/C(=N\OC(C)(C)C(=O)O)c2csc(N)n2)C(=O)N1S(=O)(=O)O [Aztreonam, aztreonam, reference compound] | > 1.2 µM | > 1.2 µM | 0.58 µM (≈ 0.253 µg/mL) | > 1.2 µM | 0.287 µM (≈ 0.125 µg/mL) | 0.575 µM (≈ 0.25 µg/mL) | 0.29 µM (≈ 0.126 µg/mL) | > 1.2 µM | > 1.2 µM | 0.58 µM (≈ 0.253 µg/mL) | 0.143 µM (≈ 0.0623 µg/mL) | 0.071 µM (≈ 0.0309 µg/mL) |

— paper PMC8147781, “Discovery of Pyrrolidine-2,3-diones as Novel Inhibitors of P. aeruginosa PBP3” (Antibiotics, 2021)
